Our source for the IC50 values is patent US20240228459A1 (Boundless Bio, Inc., priority 2022, published 2024).

In general, pIC50 refers to the IC50 on a negative log10 scale, so that one unit is a factor of ten.

pIC50: −log10 of the molar value.

One test addresses PLK1 (Homo sapiens, UniProt P53350). Kind of test: PLK1 activity (known assay). The format is biochemical. Here is the method: (§1) The Wee1 pCDK1 and PLK1 activities were determined using known assays.
A further test concerns the target Wee1 (Homo sapiens, UniProt P30291). Kind of test: Wee1 pCDK1 activity (known assay). The format is cell-based. Here is the method: as §1

PLK1, sequence (P53350 whole entry, species assumed): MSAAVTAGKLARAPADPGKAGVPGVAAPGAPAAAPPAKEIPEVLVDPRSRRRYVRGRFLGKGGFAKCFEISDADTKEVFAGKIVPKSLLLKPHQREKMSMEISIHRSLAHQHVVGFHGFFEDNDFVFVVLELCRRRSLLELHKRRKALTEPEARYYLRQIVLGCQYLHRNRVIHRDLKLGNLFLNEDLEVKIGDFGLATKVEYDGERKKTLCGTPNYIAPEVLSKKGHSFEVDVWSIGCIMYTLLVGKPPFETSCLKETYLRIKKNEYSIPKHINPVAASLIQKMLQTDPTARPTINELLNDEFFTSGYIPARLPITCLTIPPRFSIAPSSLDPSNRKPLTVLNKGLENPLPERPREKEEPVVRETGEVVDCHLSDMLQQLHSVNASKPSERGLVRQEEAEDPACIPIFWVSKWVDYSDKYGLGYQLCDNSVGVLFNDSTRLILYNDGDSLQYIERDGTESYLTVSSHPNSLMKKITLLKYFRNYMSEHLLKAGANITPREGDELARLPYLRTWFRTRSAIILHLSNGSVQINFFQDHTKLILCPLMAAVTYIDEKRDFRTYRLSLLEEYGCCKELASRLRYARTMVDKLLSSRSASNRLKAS
Wee1, sequence (P30291 whole entry, species assumed): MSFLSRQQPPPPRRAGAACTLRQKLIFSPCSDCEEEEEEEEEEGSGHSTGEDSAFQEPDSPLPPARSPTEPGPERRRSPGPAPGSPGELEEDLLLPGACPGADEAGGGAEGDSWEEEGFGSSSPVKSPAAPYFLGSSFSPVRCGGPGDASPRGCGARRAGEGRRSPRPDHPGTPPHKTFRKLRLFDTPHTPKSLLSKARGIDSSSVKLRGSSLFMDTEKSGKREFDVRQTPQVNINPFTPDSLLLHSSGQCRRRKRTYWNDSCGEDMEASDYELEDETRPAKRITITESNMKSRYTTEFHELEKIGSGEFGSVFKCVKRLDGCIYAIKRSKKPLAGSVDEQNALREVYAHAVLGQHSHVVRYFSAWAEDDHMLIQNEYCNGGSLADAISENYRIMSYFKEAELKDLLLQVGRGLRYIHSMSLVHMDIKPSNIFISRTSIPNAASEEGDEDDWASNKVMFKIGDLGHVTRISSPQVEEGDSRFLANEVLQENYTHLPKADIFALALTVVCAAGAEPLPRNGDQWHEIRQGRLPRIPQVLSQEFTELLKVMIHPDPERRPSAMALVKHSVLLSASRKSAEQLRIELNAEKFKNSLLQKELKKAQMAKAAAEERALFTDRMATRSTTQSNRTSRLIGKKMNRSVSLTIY

With `CCC1(O)CCc2ccc(Nc3nc(Nc4ccc(C5CCN(C)CC5)c(C)c4)ncc3C#N)nc21` (centres unmarked) [Example 20, 4-[(7-ethyl-7-hydroxy-5,6-dihydrocyclopenta[b]pyridin-2-yl)amino]-2-[3-methyl-4-(1-methyl-4-piperidyl)anilino]pyrimidine-5-carbonitrile], the pIC50 at PLK1 is 6.60 to 7.00; against Wee1 it was at least 7.00.
The corresponding values for `CCC1(O)CCc2ccc(Nc3nc(Nc4ccc(N5CCN(C6CC6)CC5)cc4)ncc3C#N)nc21` (centres unmarked) [Example 23, 2-[4-(4-cyclopropylpiperazin-1-yl)anilino]-4-[(7-ethyl-7-hydroxy-5,6-dihydrocyclopenta[b]pyridin-2-yl)amino]pyrimidine-5-carbonitrile] are at least 7.00 and 6.00 to 6.30.
The corresponding values for `CCC1(O)CCc2ccc(Nc3nc(Nc4ccc(N5CC6CCC5CN6C)cc4)ncc3C#N)nc21` (centres unmarked) [Example 24, 4-[(7-ethyl-7-hydroxy-5,6-dihydrocyclopenta[b]pyridin-2-yl)amino]-2-[4-(5-methyl-2,5-diazabicyclo[2.2.2]octan-2-yl)anilino]pyrimidine-5-carbonitrile] are at least 7.00 and at least 7.00.
The corresponding values for `CCC1(O)CCc2ccc(Nc3nc(Nc4ccc5c(c4)CCNC5(C)C)ncc3C#N)nc21` (centres unmarked) [Example 25, 2-[(1,1-dimethyl-3,4-dihydro-2H-isoquinolin-6-yl)amino]-4-[(7-ethyl-7-hydroxy-5,6-dihydrocyclopenta[b]pyridin-2-yl)amino]pyrimidine-5-carbonitrile] are below 6.00 and 6.00 to 6.30.
`CCC1(O)CCc2ccc(Nc3nc(Nc4ccc5c(c4)CCN(C)C5(C)C)ncc3C#N)nc21` (centres unmarked) [Example 26, 4-[(7-ethyl-7-hydroxy-5,6-dihydrocyclopenta[b]pyridin-2-yl)amino]-2-[(1,1,2-trimethyl-3,4-dihydroisoquinolin-6-yl)amino]pyrimidine-5-carbonitrile]: the values for the pIC50 on PLK1 and against Wee1 were below 6.00 and at least 7.00, respectively.
In the case of `CCC1(O)CCc2ccc(Nc3nc(Nc4ccc5c(c4)CN(C)CC5)ncc3C#N)nc21` (centres unmarked) [Example 29], the values for the pIC50 against PLK1 and on Wee1 were 6.60 to 7.00 and 6.30 to 6.60, respectively.
Taken in the same sequence, the figures for `CCC1(O)CCc2ccc(Nc3nc(Nc4ccc5c(c4)CNCC5(C)C)ncc3C#N)nc21` (centres unmarked) [Example 30, 2-[(4,4-dimethyl-2,3-dihydro-1H-isoquinolin-7-yl)amino]-4-[(7-ethyl-7-hydroxy-5,6-dihydrocyclopenta[b]pyridin-2-yl)amino]pyrimidine-5-carbonitrile] were below 6.00 and 6.30 to 6.60.
In the case of `CCC1(O)CCc2ccc(Nc3nc(Nc4ccc(N5CCNC6(CC6)C5)cc4)ncc3C#N)nc21` (centres unmarked) [Example 31, 2-[4-(4,7-diazaspiro[2.5]octan-7-yl)anilino]-4-[(7-ethyl-7-hydroxy-5,6-dihydrocyclopenta[b]pyridin-2-yl)amino]pyrimidine-5-carbonitrile], the pIC50 was 6.60 to 7.00 against PLK1 and below 6.00 against Wee1.
Taken in the same sequence, the figures for `CCC1(O)CCc2ccc(Nc3nc(Nc4ccc(N5CCN(C)C6(CC6)C5)cc4)ncc3C#N)nc21` (centres unmarked) [Example 33, 4-[(7-ethyl-7-hydroxy-5,6-dihydrocyclopenta[b]pyridin-2-yl)amino]-2-[4-(4-methyl-4,7-diazaspiro[2.5]octan-7-yl)anilino]pyrimidine-5-carbonitrile] were at least 7.00 and below 6.00.
Taken in the same sequence, the figures for `CCC1(O)CCc2ccc(Nc3nc(Nc4ccc(N5CC6CN(C)CC6C5)cc4)ncc3C#N)nc21` (centres unmarked) [Example 34, 4-[(7-ethyl-7-hydroxy-5,6-dihydrocyclopenta[b]pyridin-2-yl)amino]-2-[4-(2-methyl-1,3,3a,4,6,6a-hexahydropyrrolo[3,4-c]pyrrol-5-yl)anilino]pyrimidine-5-carbonitrile] were at least 7.00 and 6.60 to 7.00.
Taken in the same sequence, the figures for `CCC1(O)CCc2ccc(Nc3nc(Nc4ccc(N5CC6CCC(C5)N6C)cc4)ncc3C#N)nc21` (centres unmarked) [Example 35, 4-[(7-ethyl-7-hydroxy-5,6-dihydrocyclopenta[b]pyridin-2-yl)amino]-2-[4-(8-methyl-3,8-diazabicyclo[3.2.1]octan-3-yl)anilino]pyrimidine-5-carbonitrile] were at least 7.00 and 6.60 to 7.00.
In the case of `CCC1(O)CCc2ccc(Nc3nc(Nc4ccc(N5C6CCC5CN(C)C6)cc4)ncc3C#N)nc21` (centres unmarked) [Example 36, 4-[(7-ethyl-7-hydroxy-5,6-dihydrocyclopenta[b]pyridin-2-yl)amino]-2-[4-(3-methyl-3,8-diazabicyclo[3.2.1]octan-8-yl)anilino]pyrimidine-5-carbonitrile], the values for the pIC50 on PLK1 and at Wee1 were below 6.00 and 6.30 to 6.60, respectively.
The corresponding values for `CCC1(O)CCc2ccc(Nc3nc(Nc4ccc(N5CCC6(CCN(C)CC6)CC5)cc4)ncc3C#N)nc21` (centres unmarked) [Example 39, 4-[(7-ethyl-7-hydroxy-5,6-dihydrocyclopenta[b]pyridin-2-yl)amino]-2-[4-(9-methyl-3,9-diazaspiro[5.5]undecan-3-yl)anilino]pyrimidine-5-carbonitrile] are at least 7.00 and 6.60 to 7.00.
Consider `CCC1(O)CCc2ccc(Nc3nc(Nc4cc(F)c(C5CCN(C)CC5)c(F)c4)ncc3C#N)nc21` (centres unmarked) [Example 40, 2-[3,5-difluoro-4-(1-methyl-4-piperidyl)anilino]-4-[(7-ethyl-7-hydroxy-5,6-dihydrocyclopenta[b]pyridin-2-yl)amino]pyrimidine-5-carbonitrile], for which the values for the pIC50 at PLK1 and on Wee1 were below 6.00 and 6.00 to 6.30, respectively.
Taken in the same sequence, the figures for `CCC1(O)CCc2ccc(Nc3nc(Nc4cc(C)c(C5CCN(C)CC5)c(F)c4)ncc3C#N)nc21` (centres unmarked) [Example 41, 4-[(7-ethyl-7-hydroxy-5,6-dihydrocyclopenta[b]pyridin-2-yl)amino]-2-[3-fluoro-5-methyl-4-(1-methyl-4-piperidyl)anilino]pyrimidine-5-carbonitrile] were 6.30 to 6.60 and 6.60 to 7.00.
`CCC1(O)CCc2ccc(Nc3nc(Nc4ccc(C5CCN(C)CC5)c(Cl)c4)ncc3C#N)nc21` (centres unmarked) [Example 42, 2-[3-chloro-4-(1-methyl-4-piperidyl)anilino]-4-[(7-ethyl-7-hydroxy-5,6-dihydrocyclopenta[b]pyridin-2-yl)amino]pyrimidine-5-carbonitrile]: the pIC50 is 6.60 to 7.00 against PLK1 and 6.30 to 6.60 on Wee1.
The corresponding values for `CCC1(O)CCc2ccc(Nc3nc(Nc4ccc(C5CCN(C)CC5)c(F)c4)ncc3C#N)nc21` (centres unmarked) [Example 43, 4-[(7-ethyl-7-hydroxy-5,6-dihydrocyclopenta[b]pyridin-2-yl)amino]-2-[3-fluoro-4-(1-methyl-4-piperidyl)anilino]pyrimidine-5-carbonitrile] are 6.30 to 6.60 and 6.30 to 6.60.
Taken in the same sequence, the figures for `CCC1(O)CCc2ccc(Nc3nc(Nc4ccc(C5CCN(C)CC5)c(COC)c4)ncc3C#N)nc21` (centres unmarked) [Example 44, 4-[(7-ethyl-7-hydroxy-5,6-dihydrocyclopenta[b]pyridin-2-yl)amino]-2-[3-(methoxymethyl)-4-(1-methyl-4-piperidyl)anilino]pyrimidine-5-carbonitrile] were 6.30 to 6.60 and 6.60 to 7.00.
Taken in the same sequence, the figures for `CCC1(O)CCc2ccc(Nc3nc(Nc4ccc(C5CCN(C)CC5)c(OC)c4)ncc3C#N)nc21` (centres unmarked) [Example 45, 4-[(7-ethyl-7-hydroxy-5,6-dihydrocyclopenta[b]pyridin-2-yl)amino]-2-[3-methoxy-4-(1-methyl-4-piperidyl)anilino]pyrimidine-5-carbonitrile] were at least 7.00 and at least 7.00.
Consider `CCC1(O)CCc2ccc(Nc3nc(Nc4ccc5c(c4)CCN(C)C5)ncc3C#N)nc21` (centres unmarked) [Example 46, 4-[(7-ethyl-7-hydroxy-5,6-dihydrocyclopenta[b]pyridin-2-yl)amino]-2-[(2-methyl-3,4-dihydro-1H-isoquinolin-6-yl)amino]pyrimidine-5-carbonitrile], for which the pIC50 was 6.30 to 6.60 on PLK1 and 6.60 to 7.00 against Wee1.
As to `CCC1(O)CCc2ccc(Nc3nc(Nc4cc(C)c5c(c4)CCN(C)C5)ncc3C#N)nc21` (centres unmarked) [Example 47, 2-[(2,8-dimethyl-3,4-dihydro-1H-isoquinolin-6-yl)amino]-4-[(7-ethyl-7-hydroxy-5,6-dihydrocyclopenta[b]pyridin-2-yl)amino]pyrimidine-5-carbonitrile], the figures for the pIC50 against PLK1 and against Wee1 were 6.30 to 6.60 and at least 7.00, respectively.
The corresponding values for `CCC1(O)CCc2ccc(Nc3nc(Nc4ccc5c(c4)CN(C)CC5(C)C)ncc3C#N)nc21` (centres unmarked) [Example 48, 4-[(7-ethyl-7-hydroxy-5,6-dihydrocyclopenta[b]pyridin-2-yl)amino]-2-[(2,4,4-trimethyl-1,3-dihydroisoquinolin-7-yl)amino]pyrimidine-5-carbonitrile] are below 6.00 and 6.30 to 6.60.
Taken in the same sequence, the figures for `CCC1(O)CCc2ccc(Nc3nc(Nc4cc(C)c5c(c4)CN(C)CC5)ncc3C#N)nc21` (centres unmarked) [Example 49, 2-[(2,5-dimethyl-3,4-dihydro-1H-isoquinolin-7-yl)amino]-4-[(7-ethyl-7-hydroxy-5,6-dihydrocyclopenta[b]pyridin-2-yl)amino]pyrimidine-5-carbonitrile] were at least 7.00 and at least 7.00.
The corresponding values for `CCC1(O)CCc2ccc(Nc3nc(Nc4ccc(COC)c(N5CCN(C)CC5)c4)ncc3C#N)nc21` (centres unmarked) [Example 50, 4-[(7-ethyl-7-hydroxy-5,6-dihydrocyclopenta[b]pyridin-2-yl)amino]-2-[4-(methoxymethyl)-3-(4-methylpiperazin-1-yl)anilino]pyrimidine-5-carbonitrile] are 6.60 to 7.00 and 6.00 to 6.30.
Consider `CCC1(O)CCc2ccc(Nc3nc(Nc4ccc(N5CCN(C)CC5C)cc4)ncc3C#N)nc21` (centres unmarked) [Example 51, 2-[4-(2,4-dimethylpiperazin-1-yl)anilino]-4-[(7-ethyl-7-hydroxy-5,6-dihydrocyclopenta[b]pyridin-2-yl)amino]pyrimidine-5-carbonitrile], for which the figures for the pIC50 against PLK1 and against Wee1 were 6.30 to 6.60 and 6.60 to 7.00, respectively.
